# Test results taken from patent US12377175B2, “Trifunctional constructs with tunable pharmacokinetics useful in imaging and anti-tumor therapies” (Cornell University, priority 2016, dated 2025).
# Values joined by “and” are separate entries in the source; they are usually repeats but may differ in a detail not shown here. Identical values can stand only once.
# Test system: LNCaP xenograft tumor-bearing mice
# Test: Biodistribution of 225Ac-macropa-RPS-070 in LNCaP xenograft mice
# Assay type: in vivo, mouse
# Conditions: for Organ distribution, Blood, Mean / Organ distribution, Bone, Mean / Organ distribution, Heart, Mean / Organ distribution, Kidneys, Mean / Organ distribution, Large Intestine, Mean / Organ distribution, Liver, Mean / Organ distribution, Lungs, Mean / Organ distribution, Muscle, Mean / Organ distribution, Pancreas, Mean / Organ distribution, Small Intestine, Mean / Organ distribution, Spleen, Mean / Organ distribution, Stomach, Mean / Organ distribution, Tumor, Mean: n = 5
# Protocol: Cell Culture. […] Cell culture supplies were from Invitrogen unless otherwise noted.
# Inoculation of Mice with Xenografts. All animal studies were approved by the Institutional Animal Care and Use Committee of Weill Cornell Medicine and were undertaken in accordance with the guidelines set forth by the USPHS Policy on Humane Care and Use of Laboratory Animals. Animals were housed under standard conditions in approved facilities with 12 h light/dark cycles. Food and water was provided ad libitum throughout the course of the studies. Hairless male nu/nu mice were purchased from the Jackson Laboratory. For inoculation in mice, LNCaP cells were suspended at 4×10^7 cells/mL in a 1:1 mixture of PBS:Matrigel (BD Biosciences). Each mouse was injected in the left flank with 0.25 mL of the cell suspension. Biodistributions were conducted when tumors were in the range 100-400 mm^3.
# Biodistribution of […] in LNCaP xenograft mice. Fifteen LNCaP xenograft tumor-bearing mice (5 per time point) were injected intravenously with a bolus injection of 85-95 kBq and 100 ng ([…]) of each ligand. The mice were sacrificed by cervical dislocation at 4, 24 and 96 h post injection. A blood sample was removed, and a full biodistribution study was conducted on the following organs (with contents): heart, lungs, liver, small intestine, large intestine, stomach, spleen, pancreas, kidneys, muscle, bone, and tumor. Tissues were weighed and counted on a 2470 Wizard Automatic Gamma Counter (Perkin Elmer). 1% ID/mL samples were counted prior to and following each set of tissue samples to enable decay correction to be undertaken. Counts were corrected for decay and for activity injected, and tissue uptake was expressed as percent injected dose per gram (% ID/g). Standard error measurement was calculated for each data point.
compound,measurement,setting,value
O=C(O)CC[C@H](NC(=O)N[C@@H](CCCCNC(=O)Nc1cccc(-c2cn(CCOCCOCCOCCOCCOCCOCCC(=O)N[C@@H](CCCCNC(=S)Nc3cc(CN4CCOCCOCCN(Cc5cccc(C(=O)[O-])n5)CCOCCOCC4)nc(C(=O)[O-])c3)C(=O)N[C@@H](CCCCNC(=O)Cc3ccc(I)cc3)C(=O)O)nn2)c1)C(=O)O)C(=O)O.[225Ac+3] [225Ac-macropa-RPS-070],"Organ distribution, Blood, Mean",24 h after i.v. injection,0.2908 % ID/g
same,"Organ distribution, Bone, Mean",24 h after i.v. injection,0.9764 % ID/g
same,"Organ distribution, Heart, Mean",24 h after i.v. injection,0.4964 % ID/g
same,"Organ distribution, Kidneys, Mean",24 h after i.v. injection,4.192 % ID/g
same,"Organ distribution, Large Intestine, Mean",24 h after i.v. injection,0.1315 % ID/g
same,"Organ distribution, Liver, Mean",24 h after i.v. injection,1.364 % ID/g
same,"Organ distribution, Lungs, Mean",24 h after i.v. injection,0.4653 % ID/g
same,"Organ distribution, Muscle, Mean",24 h after i.v. injection,0.5603 % ID/g
same,"Organ distribution, Pancreas, Mean",24 h after i.v. injection,0.3891 % ID/g
same,"Organ distribution, Small Intestine, Mean",24 h after i.v. injection,0.09473 % ID/g
same,"Organ distribution, Spleen, Mean",24 h after i.v. injection,0.6122 % ID/g
same,"Organ distribution, Stomach, Mean",24 h after i.v. injection,0.1326 % ID/g
same,"Organ distribution, Tumor, Mean",24 h after i.v. injection,8.17 % ID/g
same,"Organ distribution, Blood, individual mice 1-5",96 h after i.v. injection,0.1904 % ID/g and 0.1919 % ID/g and 0.1521 % ID/g and 0.1653 % ID/g and 0.2382 % ID/g
same,"Organ distribution, Bone, individual mice 1-5",96 h after i.v. injection,0.8639 % ID/g and 0.8687 % ID/g and 0.8383 % ID/g and 1.122 % ID/g and 0.8204 % ID/g
same,"Organ distribution, Heart, individual mice 1-5",96 h after i.v. injection,0.3994 % ID/g and 0.424 % ID/g and 0.4286 % ID/g and 0.4459 % ID/g and 0.456 % ID/g
same,"Organ distribution, Kidneys, individual mice 1-5",96 h after i.v. injection,1.303 % ID/g and 1.3239 % ID/g and 2.004 % ID/g and 1.399 % ID/g and 1.46 % ID/g
same,"Organ distribution, Large Intestine, individual mice 1-5",96 h after i.v. injection,0.04349 % ID/g and 0.09663 % ID/g and 0.04522 % ID/g and 0.04198 % ID/g and 0.03927 % ID/g
same,"Organ distribution, Liver, individual mice 1-5",96 h after i.v. injection,0.7941 % ID/g and 0.8144 % ID/g and 0.733 % ID/g and 0.7917 % ID/g and 0.7942 % ID/g
same,"Organ distribution, Lungs, individual mice 1-5",96 h after i.v. injection,0.3016 % ID/g and 0.5091 % ID/g and 0.4694 % ID/g and 0.3781 % ID/g and 0.3698 % ID/g
same,"Organ distribution, Muscle, individual mice 1-5",96 h after i.v. injection,0.3022 % ID/g and 0.5249 % ID/g and 0.2509 % ID/g and 0.2982 % ID/g and 0.2528 % ID/g
same,"Organ distribution, Pancreas, individual mice 1-5",96 h after i.v. injection,0.09848 % ID/g and 0.377 % ID/g and 0.3055 % ID/g and 0.3162 % ID/g and 0.3335 % ID/g
same,"Organ distribution, Small Intestine, individual mice 1-5",96 h after i.v. injection,0.04372 % ID/g and 0.0577 % ID/g and 0.03752 % ID/g and 0.04431 % ID/g and 0.04136 % ID/g
same,"Organ distribution, Spleen, individual mice 1-5",96 h after i.v. injection,0.4837 % ID/g and 0.394 % ID/g and 0.4426 % ID/g and 0.4348 % ID/g and 0.5397 % ID/g
same,"Organ distribution, Stomach, individual mice 1-5",96 h after i.v. injection,0.03442 % ID/g and 0.04708 % ID/g and 0.03448 % ID/g and 0.02845 % ID/g and 0.02366 % ID/g
same,"Organ distribution, Tumor, individual mice 1-5",96 h after i.v. injection,4.043 % ID/g and 4.078 % ID/g and 6.74 % ID/g and 4.581 % ID/g and 4.845 % ID/g
same,"Organ distribution, Blood, Mean",96 h after i.v. injection,0.1876 % ID/g
same,"Organ distribution, Bone, Mean",96 h after i.v. injection,0.9027 % ID/g
same,"Organ distribution, Heart, Mean",96 h after i.v. injection,0.4333 % ID/g
same,"Organ distribution, Kidneys, Mean",96 h after i.v. injection,1.4978 % ID/g
same,"Organ distribution, Large Intestine, Mean",96 h after i.v. injection,0.05332 % ID/g
same,"Organ distribution, Liver, Mean",96 h after i.v. injection,0.7855 % ID/g
same,"Organ distribution, Lungs, Mean",96 h after i.v. injection,0.4056 % ID/g
same,"Organ distribution, Muscle, Mean",96 h after i.v. injection,0.3258 % ID/g
same,"Organ distribution, Pancreas, Mean",96 h after i.v. injection,0.2861 % ID/g
same,"Organ distribution, Small Intestine, Mean",96 h after i.v. injection,0.04492 % ID/g
same,"Organ distribution, Spleen, Mean",96 h after i.v. injection,0.459 % ID/g
same,"Organ distribution, Stomach, Mean",96 h after i.v. injection,0.03362 % ID/g
same,"Organ distribution, Tumor, Mean",96 h after i.v. injection,4.857 % ID/g
same,uptake by other organs (other than kidneys and tumor),96 h post injection,< 1 % ID/g
